Assay results published in ChEMBL document CHEMBL4308841, “Synthesis, in vitro antiproliferative activity, and kinase inhibitory effects of pyrazole-containing diarylureas and diarylamides” (Eur J Med Chem, 2018).

Experiments:
PC-3 = assay: Growth inhibition of human PC3 cells assessed as cell growth at 0.1 uM incubated for 48 hrs by sulforhodamine B assay relative to control; type: functional; settings: PC-3, 48 h, read-out: Activity
SK-MEL-28 = assay: Growth inhibition of human SK-MEL-28 cells assessed as cell growth at 100 uM incubated for 48 hrs by sulforhodamine B assay relative to control; type: functional; settings: SK-MEL-28, 48 h, read-out: Activity
NCI-H460 [1] = assay: Growth inhibition of human NCI-H460 cells assessed as cell growth at 0.01 uM incubated for 48 hrs by sulforhodamine B assay relative to control; type: functional; settings: NCI-H460, 48 h, read-out: Activity
Malme-3M = assay: Growth inhibition of human MALME-3M cells assessed as cell growth at 1 uM incubated for 48 hrs by sulforhodamine B assay relative to control; type: functional; settings: read-out: Activity
NCI-H226 [2] = assay: Growth inhibition of human NCI-H226 cells assessed as cell growth at 0.01 uM incubated for 48 hrs by sulforhodamine B assay relative to control; type: functional; settings: NCI-H226, 48 h, read-out: Activity
NCI-H322M = assay: Growth inhibition of human NCI-H322M cells assessed as cell growth at 100 uM incubated for 48 hrs by sulforhodamine B assay relative to control; type: functional; settings: read-out: Activity
HT-29 [3] = assay: Growth inhibition of human HT-29 cells assessed as cell growth at 0.01 uM incubated for 48 hrs by sulforhodamine B assay relative to control; type: functional; settings: HT-29, 48 h, read-out: Activity
SK-OV-3 = assay: Growth inhibition of human SKOV3 cells incubated for 48 hrs by sulforhodamine B assay; type: functional, cell-based; settings: SK-OV-3, 48 h
NCI-H460 [4] = assay: Growth inhibition of human NCI-H460 cells assessed as cell growth at 100 uM incubated for 48 hrs by sulforhodamine B assay relative to control; type: functional; settings: NCI-H460, 48 h, read-out: Activity
HCT-116 = assay: Growth inhibition of human HCT116 cells assessed as cell growth at 1 uM incubated for 48 hrs by sulforhodamine B assay relative to control; type: functional; settings: HCT-116, 48 h, read-out: Activity
HT-29 [5] = assay: Growth inhibition of human HT-29 cells assessed as cell growth at 100 uM incubated for 48 hrs by sulforhodamine B assay relative to control; type: functional; settings: HT-29, 48 h, read-out: Activity
NCI-H460 [6] = assay: Growth inhibition of human NCI-H460 cells incubated for 48 hrs by sulforhodamine B assay; type: functional, cell-based; settings: NCI-H460, 48 h
OVCAR-5 [7] = assay: Growth inhibition of human OVCAR5 cells assessed as cell growth at 1 uM incubated for 48 hrs by sulforhodamine B assay relative to control; type: functional; settings: OVCAR-5, 48 h, read-out: Activity
OVCAR-8 [8] = assay: Growth inhibition of human OVCAR8 cells assessed as cell growth at 100 uM incubated for 48 hrs by sulforhodamine B assay relative to control; type: functional; settings: OVCAR-8, 48 h, read-out: Activity
RXF 393 = assay: Growth inhibition of human RXF393 cells incubated for 48 hrs by sulforhodamine B assay; type: functional, cell-based; settings: RXF 393, 48 h
U-251 = assay: Growth inhibition of human U251 cells incubated for 48 hrs by sulforhodamine B assay; type: functional, cell-based; settings: U-251, 48 h
RPMI-8226 = assay: Growth inhibition of human RPMI8226 cells assessed as cell growth at 0.01 uM incubated for 48 hrs by sulforhodamine B assay relative to control; type: functional; settings: RPMI-8226, 48 h, read-out: Activity
NCI-H226 [9] = assay: Growth inhibition of human NCI-H226 cells incubated for 48 hrs by sulforhodamine B assay; type: functional, cell-based; settings: NCI-H226, 48 h
SNB-75 = assay: Growth inhibition of human SNB75 cells assessed as cell growth at 100 uM incubated for 48 hrs by sulforhodamine B assay relative to control; type: functional; settings: SNB-75, 48 h, read-out: Activity
COLO 205 = assay: Growth inhibition of human COLO205 cells assessed as cell growth at 0.1 uM incubated for 48 hrs by sulforhodamine B assay relative to control; type: functional; settings: COLO 205, 48 h, read-out: Activity
MCF7 = assay: Growth inhibition of human MCF7 cells assessed as cell growth at 100 uM incubated for 48 hrs by sulforhodamine B assay relative to control; type: functional; settings: MCF7, 48 h, read-out: Activity
SW-620 = assay: Growth inhibition of human SW620 cells assessed as cell growth at 1 uM incubated for 48 hrs by sulforhodamine B assay relative to control; type: functional; settings: SW-620, 48 h, read-out: Activity
LOX IMVI = assay: Growth inhibition of human LOXIMVI cells assessed as cell growth at 1 uM incubated for 48 hrs by sulforhodamine B assay relative to control; type: functional; settings: read-out: Activity
OVCAR-5 [10] = assay: Growth inhibition of human OVCAR5 cells assessed as cell growth at 0.1 uM incubated for 48 hrs by sulforhodamine B assay relative to control; type: functional; settings: OVCAR-5, 48 h, read-out: Activity
ACHN = assay: Growth inhibition of human ACHN cells assessed as cell growth at 1 uM incubated for 48 hrs by sulforhodamine B assay relative to control; type: functional; settings: read-out: Activity
SF-539 = assay: Growth inhibition of human SF539 cells incubated for 48 hrs by sulforhodamine B assay; type: functional, cell-based; settings: SF-539, 48 h
BT-549 = assay: Growth inhibition of human BT549 cells assessed as cell growth at 100 uM incubated for 48 hrs by sulforhodamine B assay relative to control; type: functional; settings: BT-549, 48 h, read-out: Activity
HT-29 [11] = assay: Growth inhibition of human HT-29 cells assessed as cell growth at 0.1 uM incubated for 48 hrs by sulforhodamine B assay relative to control; type: functional; settings: HT-29, 48 h, read-out: Activity
OVCAR-8 [12] = assay: Growth inhibition of human OVCAR8 cells assessed as cell growth at 0.01 uM incubated for 48 hrs by sulforhodamine B assay relative to control; type: functional; settings: OVCAR-8, 48 h, read-out: Activity
UACC-62 = assay: Growth inhibition of human UACC62 cells assessed as cell growth at 100 uM incubated for 48 hrs by sulforhodamine B assay relative to control; type: functional; settings: UACC-62, 48 h, read-out: Activity
[13] = read-out: LC50 (the source's name)
[14] = read-out: pLC50 (the source's name) (converted)

`O=C(Nc1cccc(-n2cc(-c3ccncc3)c(-c3cc(O)cc(Cl)c3)n2)c1)Nc1ccc(Cl)c(C(F)(F)F)c1` showed a growth at 0.1 µM (PC-3) of 98%, a growth at 100 µM (SK-MEL-28) of -89% and a growth at 0.01 µM (NCI-H460 [1]) of 101%. For the same molecule, the growth at 1 µM (Malme-3M) was 94%, the growth at 0.01 µM (NCI-H226 [2]) was 97% and the growth at 100 µM (NCI-H322M) was -81%. The growth at 0.01 µM (HT-29 [3]) was 98%, the GI50 (SK-OV-3; read-out: GI50) was 4.11 µM and the CC50 (SK-OV-3; [13]) was greater than 100 µM. The TGI (SK-OV-3; read-out: TGI) was 30.7 µM, the GI50 (SK-OV-3; read-out: pGI50 (converted)) was 4.07 µM and the CC50 (SK-OV-3; [14]) was greater than 100 µM. It also gave a TGI (SK-OV-3; read-out: pTGI (converted)) of 30.9 µM, a growth at 100 µM (NCI-H460 [4]) of -52% and a growth at 1 µM (HCT-116) of 91%. It also gave a growth at 100 µM (HT-29 [5]) of -88%, a GI50 (NCI-H460 [6]; read-out: GI50) of 2.59 µM and a CC50 (NCI-H460 [6]; [13]) of 85.8 µM. For the same molecule, the TGI (NCI-H460 [6]; read-out: TGI) was 73.7 µM, the GI50 (NCI-H460 [6]; read-out: pGI50 (converted)) was 2.57 µM and the CC50 (NCI-H460 [6]; [14]) was 87.1 µM. It also gave a TGI (NCI-H460 [6]; read-out: pTGI (converted)) of 7.41 µM, a growth at 1 µM (OVCAR-5 [7]) of 109% and a growth at 100 µM (OVCAR-8 [8]) of -52%. It also gave an LC50 (RXF 393) of 12.9 µM, a GI50 (RXF 393; read-out: GI50) of 1.42 µM and a TGI (RXF 393; read-out: TGI) of 36.6 µM. The GI50 (RXF 393; read-out: pGI50 (converted)) was 1.41 µM, the TGI (RXF 393; read-out: pTGI (converted)) was 3.89 µM and the IC50 (U-251) was 1.72 µM. For the same molecule, the GI50 (U-251; read-out: GI50) was 1.72 µM, the CC50 (U-251; [13]) was 77.5 µM and the TGI (U-251; read-out: TGI) was 30 µM. The GI50 (U-251; read-out: pGI50 (converted)) was 1.74 µM, the CC50 (U-251; [14]) was 7.76 µM and the TGI (U-251; read-out: pTGI (converted)) was 3.63 µM. The growth at 0.01 µM (RPMI-8226) was 101%, the GI50 (NCI-H226 [9]; read-out: GI50) was 2.47 µM and the LC50 (NCI-H226 [9]; read-out: LC50) was greater than 100 µM. For the same molecule, the TGI (NCI-H226 [9]; read-out: TGI) was 89.6 µM, the GI50 (NCI-H226 [9]; read-out: pGI50 (converted)) was 2.45 µM and the LC50 (NCI-H226 [9]; read-out: pLC50 (converted)) was greater than 100 µM. It also gave a TGI (NCI-H226 [9]; read-out: pTGI (converted)) of 8.91 µM, a growth at 100 µM (SNB-75) of -41% and a growth at 0.1 µM (COLO 205) of 95%. The growth at 100 µM (MCF7) was -43%, the growth at 1 µM (SW-620) was 101% and the growth at 1 µM (LOX IMVI) was 93%. The growth at 0.1 µM (OVCAR-5 [10]) was 91%, the growth at 1 µM (ACHN) was 92% and the GI50 (SF-539; read-out: GI50) was 1.97 µM. It also gave a CC50 (SF-539; [13]) of 13.7 µM, a TGI (SF-539; read-out: TGI) of 44.9 µM and a GI50 (SF-539; read-out: pGI50 (converted)) of 1.95 µM. It also gave a CC50 (SF-539; [14]) of 13.8 µM, a TGI (SF-539; read-out: pTGI (converted)) of 4.47 µM and a growth at 100 µM (BT-549) of -93%. For the same molecule, the growth at 0.1 µM (HT-29 [11]) was 93%, the growth at 0.01 µM (OVCAR-8 [12]) was 102% and the growth at 100 µM (UACC-62) was -85%.
